Experiments:
[1] = tested on: S. Aureus ATCC 6538; test: Growth of S. aureus culture in presence of EGT (optical density, 24 hours); assay type: cell-based; conditions: 0.001%, 0.05% or 0.1% (w/v) added upon inoculation, MH media, 37 C, OD monitored 24 hours
Procedure: (§1) The growth of two bacterial strains, one commensal containing EGT-synthetic genes (P. aeruginosa ATCC 27853) and one pathogen lacking such genes (S. Aureus ATCC 6538) were compared in the presence and absence of EGT. Each strain was adjusted to an OD600 of 0.2 in MH culture media, inoculated into 96-well plates and incubated at 37 C. The growth of the cultures were monitored for optical density for 24 hours. The S. aureus and P. aeruginosa cultures reached stationary phase after 15 and 2 hours, respectively. Addition of L-ergothioneine (99+% purity) at 0.001%, 0.05% or 0.1% (w/v) upon inoculation had no effect on the growth rate of either culture.

[2] = tested on: IL-8; test: Release of inflammatory cytokine IL-8 by human keratinocytes after treatment with S. aureus; assay type: cell-based; conditions: 24 hours pre-treatment, keratinocytes infected with S. aureus at multiplicity of infection of 10, 24 hours
Procedure: The present example examines the release of the inflammatory cytokine IL-8 by human keratinocytes after treatment with S. aureus. Although S. aureus is associated with atopic dermatitis, IL-8 […] as inflammatory cytokine in this disease (Li and Yosipovitch, 2020).
Infection of a keratinocyte culture at a multiplicity of infection of 10 increased the amount of IL-8 from low levels in uninfected cultures to an increase of 6,044% in 24 hours in infected cultures. Pre-treatment of the keratinocyte cultures with EGT for 24 hours reduced the release of IL-8 by 61% for 0.005% EGT, 75% for 0.01% EGT, and 82% for 0.05% EGT.

[3] = tested on: P. aeruginosa ATCC 27853; test: Growth of P. aeruginosa culture in presence of EGT (optical density, 24 hours); assay type: cell-based; conditions: 0.001%, 0.05% or 0.1% (w/v) added upon inoculation, MH media, 37 C, OD monitored 24 hours
Procedure: as §1

[4] = Skin redness of atopic dermatitis lesions, topical formula, dermospectrophotometer; assay type: in vivo, human; conditions: placebo 9%
Procedure: The present example tests the effect of EGT on skin inflammation in subjects with atopic dermatitis lesions.
Three topical formulas were prepared using a commercial formulation of EGT called MC-2, which is a granulated preparation of EGT mixed into mannitol. One formulation was a placebo, with only mannitol added. The second was a low dose formula containing EGT in the form of MC-2 added to a final concentration of 0.005% EGT (w/w). The third was a high dose formulation containing EGT in the form of MC-2 added to a final concentration of 0.05% EGT (w/w).
Subjects with patches of atopic dermatitis were recruited to the study and 16 were assigned to each of three arms: placebo, low dose EGT and high dose EGT. The subjects were 9 males and 39 females, representing each Fitzpatrick Skin Type (I-VI) in age range from 21 to 73 years old. The redness of the skin lesion was measured using a dermospectrophotometer and compared to adjacent uninvolved skin to determine a redness measure. The subjects used the test formula on the skin lesion twice a day for 4 weeks. The lesions were again measured with a dermospectrophotometer.

**Q.** Which results are given for C[N+](C)(C)[C@@H](Cc1c[nH]c(=S)[nH]1)C(=O)[O-] [EGT]?
**A.** effect on the growth rate of culture [1]: no effect; reduction of release of IL-8 ([2]; 0.005% EGT): 61%; reduction of release of IL-8 ([2]; 0.01% EGT): 75%; reduction of release of IL-8 ([2]; 0.05% EGT): 82%; effect on the growth rate of culture [3]: no effect; redness reduction of skin lesion ([4]; high dose topical formula, 0.05% EGT (w/w) as MC-2, twice a day for 4 weeks): 50%; redness reduction of skin lesion ([4]; low dose topical formula, 0.005% EGT (w/w) as MC-2, twice a day for 4 weeks): 66%
